Patent US8580806B2, “Salts of 4-methyl N-[3-(4-methyl-imidazol-1-yl)-5-trifluoromethyl-phenyl]-3-(4-pyridin-3-yl-pyrimidin-2-ylamino)-benzamide” (Novartis AG, priority 2005, dated 2013)
Structures can show the parent of a compound that is named as a salt.

Key:
Format in all cases: physicochemical
[1] = Decomposition temperature by TGA; details: as stated in the description of the embodiments; listed as hydrochloride salt
Procedure: The LOD and decomposition temperature of the salts of the invention were determined by TGA, and the melting point was determined by DSC.

[2] = pH of 1% solution or suspension in water; details: 1% in water
[3] = Solid state stability: heat, humidity, xenon light (Table 15)
[4] = Solid-state behaviour of the hydrochloride salt (equilibration, grinding, compression)
[5] = Stability of solutions or suspensions (Table 15)
[6] = Hygroscopicity (moisture uptake v. relative humidity); details: when first tested
Procedure: Hygroscopicity: Sorption/desorption isotherms were collected using a Surface Measurements Systems dynamic vapor sorption device (DVS-1). The measurements were carried out at 25° C.

[7] = Hygroscopicity by TGA after one day at ambient temperature and 93% relative humidity; details: ambient temperature, listed as Hydrochloride (form B)
Procedure: The hygroscopicity of the salts of the invention was determined by TGA after one day at ambient temperature and 93% relative humidity.

Bulk corrosivity = details: 2 day, 80% relative humidity with steel coupon
[8] = Intrinsic Dissolution Rate (rotating disk method); details: Water, 37° C., 200 rpm
Procedure: Intrinsic Dissolution Rate (IDR): Dissolution rate measurements were performed at 37° C. using the rotating disk method (VanKell Instrument). A single rotation speed of 200 rpm was used. For IDR in 0.1 N HCl, an 800 mL volume, and for IDE in water, a 200 mL volume were used. The solution was continuously pumped through a UV measuring cell and recycled to the dissolution vessel.

[9] = Solid state, 1 week 80° C., 75% relative humidity, 30% in mixture 1
[10] = Solid state, 1 week 80° C., 75% relative humidity, 30% in mixture 2
[11] = Solid state, 1 week 80° C., 75% relative humidity, Bulk (HPLC)
[12] = Solid state, 1 week 80° C., tight container, 30% in mixture 1
[13] = Solid state, 1 week 80° C., tight container, 30% in mixture 2
[14] = Solid state, 1 week 80° C., tight container, Bulk (HPLC)
[15] = Xenon light (approximately 200 kLuxh), Bulk (HPLC)
[16] = 0.1% solutions or suspensions, 1 week at 80° C., Acetonitrile
[17] = 0.1% solutions or suspensions, 1 week at 80° C., Ethanol
[18] = 0.1% solutions or suspensions, 1 week at 80° C., Methanol
[19] = 0.1% solutions or suspensions, 1 week at 80° C., Water (pH measured: 4.74; pH measured for HCl salt: 4.22)
[20] = 0.1% solutions or suspensions, 1 week at 80° C., pH 1 (pH measured: 1.26)
[21] = 0.1% solutions or suspensions, 1 week at 80° C., pH 2 (pH measured: 2.00)
[22] = 0.1% solutions or suspensions, 1 week at 80° C., pH 3 (pH measured: 2.94)
[23] = 0.1% solutions or suspensions, 1 week at 80° C., pH 5 (pH measured: 5.01)
[24] = 0.1% solutions or suspensions, 1 week at 80° C., pH 7 (pH measured: 6.02)
[25] = 0.1% solutions or suspensions, 1 week at 80° C., pH 9 (pH measured: 8.92)
[26] = 0.1% solutions or suspensions, 1 week at 80° C., pH 11 (pH measured: 10.86)
[27] = 0.1% solutions or suspensions, PH 1, 1 week @ 50° C.
[28] = 2% solutions or suspensions, 1 day at room temperature, 0.5% CMC
[29] = 2% solutions or suspensions, 1 day at room temperature, 0.5% HPMC cellulose 4000
[30] = 2% solutions or suspensions, 1 day at room temperature, 0.8% Tween 80
[31] = 5% solutions in DMSO, 1 day at room temperature, 1:100 dilution in pH 6.8 buffer

Cc1cn(-c2cc(NC(=O)c3ccc(C)c(Nc4nccc(-c5cccnc5)n4)c3)cc(C(F)(F)F)c2)cn1 [Hydrochloride monohydrate (form B), 4-methyl-N-[3-(4-methyl-imidazol-1-yl)-5-trifluoromethyl-phenyl]-3-(4-pyridin-3-yl-pyrimidin-2-ylamino)-benzamide monohydrochloride monohydrate salt]
decomposes at [1]: about 173 °C
pH of 1% solution or suspension in water [2]: 2.53
Bulk (XRPD) ([3]; Solid state, 1 week 80° C., 75% relative humidity): No change
Assay [3, 9]: 100.88
Assay [% area]: bracketed % area [3, 9]: 100.00 % area
Assay [3, 10]: 92.17
Assay [% area]: bracketed % area [3, 10]: 97.99 % area
Assay [3, 11]: 100.71
Assay [% area]: bracketed % area [3, 11]: 100.00 % area
Bulk (XRPD) ([3]; Solid state, 1 week 80° C., tight container): No change
Assay [3, 12]: 101.23
Assay [% area]: bracketed % area [3, 12]: 100.00 % area
Assay [3, 13]: 93.43
Assay [% area]: bracketed % area [3, 13]: 97.82 % area
Assay [3, 14]: 100.77
Assay [% area]: bracketed % area [3, 14]: 100.00 % area
Bulk (XRPD) ([3]; Xenon light (approximately 200 kLuxh)): No change
Assay [3, 15]: 99.73
Assay [% area]: bracketed % area [3, 15]: 100.00 % area
behaviour upon compression ([4]; compression): can withstand compression
behaviour upon grinding ([4]; grinding): becomes amorphous
Appearance [5, 16]: B↓
Assay [5, 16]: 100.33
Assay [% area]: bracketed % area [5, 16]: 100.00 % area
Appearance [5, 17]: A*
Assay [5, 17]: 100.41
Assay [% area]: bracketed % area [5, 17]: 100.00 % area
Appearance [5, 18]: A*
Assay [5, 18]: 99.169
Assay [% area]: bracketed % area [5, 18]: 98.72 % area
Appearance [5, 19]: A↓
Assay [5, 19]: 101.43
Assay [% area]: bracketed % area [5, 19]: 100.00 % area
Appearance [5, 20]: A*
Assay [5, 20]: 46.68
Assay [% area]: bracketed % area [5, 20]: 42.93 % area
Appearance [5, 21]: B↓
Assay [5, 21]: 91.77
Assay [% area]: bracketed % area [5, 21]: 91.61 % area
Appearance [5, 22]: B↓
Assay [5, 22]: 98.84
Assay [% area]: bracketed % area [5, 22]: 100.00 % area
Appearance [5, 23]: A↓
Assay [5, 23]: 100.02
Assay [% area]: bracketed % area [5, 23]: 100.00 % area
Appearance [5, 24]: B↓
Assay [5, 24]: 99.56
Assay [% area]: bracketed % area [5, 24]: 100.00 % area
Appearance [5, 25]: B↓
Assay [5, 25]: 101.19
Assay [% area]: bracketed % area [5, 25]: 100.00 % area
Appearance [5, 26]: B↓
Assay [5, 26]: 102.19
Assay [% area]: bracketed % area [5, 26]: 100.00 % area
Appearance [5, 27]: A*
Assay [5, 27]: 94.14
Assay [% area]: bracketed % area [5, 27]: 93.21 % area
Appearance [5, 28]: A↓
Assay [5, 28]: 103.06
Assay [% area]: bracketed % area [5, 28]: 100.00 % area
Appearance [5, 29]: A↓
Assay [5, 29]: 100.44
Assay [% area]: bracketed % area [5, 29]: 100.00 % area
Appearance [5, 30]: A↓
Assay [5, 30]: 102.42
Assay [% area]: bracketed % area [5, 30]: 100.00 % area
Appearance [5, 31]: A↓
Assay [5, 31]: 101.85
Assay [% area]: bracketed % area [5, 31]: 100.00 % area
Assay ([5]; Unstressed): 99.10
Assay [% area]: bracketed % area ([5]; Unstressed): 100.00 % area
moisture uptake ([6]; 60% relative humidity): up to 2%
moisture uptake ([6]; 95% relative humidity): up to 2.7%
% moisture gain [7]: 0.20%
Bulk corrosivity (Bulk corrosivity): No change
Intrinsic dissolution rate [8]: 0.0024 mg min^−1 cm^−2
